The values that follow are results of earlier work, collected in patent publication US20180193305A1, “CROMOLYN COMPOSITIONS FOR TREATMENT OF CHRONIC COUGH DUE TO IDIOPATHIC PULMONARY FIBROSIS” (Patara Pharma, LLC, priority 2016, published 2018).

For this data set the following is noted: in vivo.

Like-named read-outs stand apart in the source and are kept apart here.

As for `O=C(O)c1cc(=O)c2c(OCC(O)COc3cccc4oc(C(=O)O)cc(=O)c34)cccc2o1` [cromolyn sodium, disodium 5,5′-(2-hydroxypropane-1,3-diyl)bis(oxy)bis(4-oxo-4H-chromene-2-carboxylate)], the Oral bioavailability is given as approximately 1%. Further, the Oral bioavailability result (listed as cromolyn) is “about 1%”.
